# Laboratory results published in publication PMC6367362, “MD001, a Novel Peroxisome Proliferator-activated Receptor α/γ Agonist, Improves Glucose and Lipid Metabolism” (Scientific Reports, 2019).
# Tests used:
# wild type C57BL/6J mice = assay: Toxicity study in wild type C57BL/6J mice; type: in vivo, mouse; conditions: wild type C57/BL6 mice, 50 or 100 mg/kg MD001 for eight weeks
# Source text: Supplementary Table S4. Laboratory findings in control and MD001-treated mice
# Results are expressed as the mean ( ± SD).
# ALT, alanine transaminase; AST, aspartate transaminase; BUN, blood urea nitrogen; WBC, white blood cells.
# Supplementary Table S5. Crystal data and structure refinement for 4a
# Identification code exp_524
# Empirical formula C27H22O5
# Crystal system monoclinic
# HepG2 cells = assay: Fatty acid oxidation assay ([3H]palmitate), HepG2; type: cell-based, human; conditions: 10 μM, 24 h
# Description: Figure 4 MD001 stimulates fatty acid oxidation in vitro. HepG2 (A), differentiated 3T3-L1 adipocyte (B), and differentiated C2C12 myotubes (C) were treated with vehicle or MD001 (10 μM) for 24 h and total RNA was isolated for cDNA synthesis. Relative gene expressions were analysed by qRT-PCR. HepG2 (D), differentiated 3T3-L1 adipocytes (E), and differentiated C2C12 myotubes (F) were treated with vehicle, MD001 (10 μM), or WY14643 (WY) (10 μM) for 24 h and the fatty acid oxidation rate was analysed as described in the Methods section. To confirm whether the fatty acid oxidation rate enhanced by MD001 is mediated by PPARα, HepG2 (G), differentiated 3T3-L1 (H), and differentiated C2C12 myotubes (I) were transfected with control or PPARα siRNA (20 nM) for 48 h, followed by treatment with vehicle, MD001 (10 μM), or WY14643 (WY) (10 μM) for 24 h. […]
# For the fatty acid oxidation assay, cells were incubated in α-MEM (HyClone Laboratories, Inc., Logan, UT, USA) containing 0.1 mM palmitate (9,10-[^3H]palmitate, 5 μci/mL) (PerkinElmer, Waltham, MA, USA) and 1% bovine serum albumin for 24 h. […] After incubation, the vial was removed and radioactivity (^3H2O in water) was quantified using a liquid scintillation counter (LKB Instruments, Victoria, Australia).
# PPARβ/δ = molecular target: T1, PPARβ/δ (Homo sapiens, UniProt Q03181); assay: SPR analysis of binding to immobilised HA-PPARβ/δ; conditions: N.B = No binding up to 500 μM
# T1 construct: HA; made in house
# T1 sequence (Q03181 1-441): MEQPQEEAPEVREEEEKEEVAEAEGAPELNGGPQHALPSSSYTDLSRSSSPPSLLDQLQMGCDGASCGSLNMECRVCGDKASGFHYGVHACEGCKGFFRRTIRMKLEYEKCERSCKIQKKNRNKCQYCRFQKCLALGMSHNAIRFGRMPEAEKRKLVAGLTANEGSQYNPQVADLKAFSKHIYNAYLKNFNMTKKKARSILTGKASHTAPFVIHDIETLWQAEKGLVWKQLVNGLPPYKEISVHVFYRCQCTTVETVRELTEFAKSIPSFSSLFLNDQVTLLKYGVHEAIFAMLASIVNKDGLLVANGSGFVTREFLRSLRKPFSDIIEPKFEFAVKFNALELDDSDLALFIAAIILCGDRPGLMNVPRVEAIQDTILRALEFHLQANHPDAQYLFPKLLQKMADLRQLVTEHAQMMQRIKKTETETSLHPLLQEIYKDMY
# Description: SPR analysis was performed using a Reichert SR7500DC (Reichert Technologies, Depew, NY, USA). HA-PPARα, HA-PPARβ/δ, and HA-PPARγ were purified as previously described[23] and was immobilised on CMDH chips (Reichert Technologies) according to the manufacturer’s instructions. MD001 was loaded in a dose-dependent manner (31.25, 62.5, 125, 250, and 500 μM) for the SPR assay. The dissociation constant (KD) value was determined using the Scrubber2 program (Informer Technologies, Inc., Los Angeles, CA, USA).
# db/db mice = assay: Oral once-daily administration to diabetic db/db mice
# Description: (A) Changes in blood glucose levels was monitored in db/db mice administered once a day with vehicle, WY14643 (WY, 20 mg/kg), rosiglitazone (rosi, 20 mg/kg), or MD001 (n = 5–6 per group) as indicated. […] (D–M) The change in various blood metabolites was examined in db/db mice administered once a day with vehicle, WY14643 (WY), rosiglitazone (rosi), or MD001 (n = 5–6 per group). *, **, and ^#, vs. vehicle; ^†, vs. vehicle, MD001(5 mg/kg), and MD001(20 mg/kg). The data represent the mean ± S.D. *P < 0.05, **P < 0.01, ^#P < 0.001, and ^†P < 0.01.
# Six-week-old C57BLKS/J-Lepr^db/Lepr^db or wild type C57BL/6J male mice were purchased from Orient Bio, Inc. (Seongnam, Korea) and acclimatised for one week. Mice were randomly grouped and orally administered with vehicle, WY14643 (20 mg/kg), rosiglitazone (20 mg/kg), or MD001 (5 mg/kg or 20 mg/kg) once a day for two months. […] Blood glucose levels were measured at the indicated time point using an OneTouch Ultra Blood Glucose Monitoring System (LifeScan, Inc., Milpitas, CA, USA).
# Livers and blood samples were collected from mice in each group.
# Tissues specimens including liver, perigonadal adipose tissue, skeletal muscle, spleen, kidney, and heart, were collected from mice in each group, fixed in 10% formalin, and embedded into paraffin. Tissue sections (5 μm) were stained with haematoxylin and eosin (H&E).
# [1] = db/db mice, 60 days, rosiglitazone 20 mg/kg, MD001 5 and 20 mg/kg
# [2] = db/db mice, once a day for 60 days, rosiglitazone 20 mg/kg
# [3] = db/db mice, 20 mg/kg, 60 days, qRT-PCR
# [4] = db/db mice, 20 mg/kg, qRT-PCR and immunoblot
structure (smiles),measurement,setting,value
Cc1c(O)cc(O)c2c(-c3ccccc3)c(C(=O)/C=C/c3ccccc3)c(=O)oc12 [MD001],liver and kidney toxicities,wild type C57BL/6J mice,not observed
same,white blood cell counts and haemoglobin (toxicology study),wild type C57BL/6J mice,no differences
same,body weight change,wild type C57BL/6J mice; data not shown,no significant differences
same,β-oxidation rate (fatty acid oxidation),HepG2 cells,significantly increased
same,"KD (M), second row of Supplementary Table S3 (PPARβ/δ)",PPARβ/δ,N.B
same,blood glucose levels in intraperitoneal insulin tolerance test (IPITT),db/db mice; db/db mice,lowered
same,body weight gain,"db/db mice; db/db mice, 60 days, compared to vehicle",no induction of body weight gain
same,RBC count,db/db mice; [1],did not decrease
same,haematocrit (HCT) level,db/db mice; [1],did not decrease
same,haemoglobin (Hb) level,db/db mice; [1],did not decrease
same,number of large fat cells (>150 μm in diameter),"db/db mice; db/db mice, adipose tissue H&E",significantly reduced
same,number of medium fat cells (100~150 μm in diameter),"db/db mice; db/db mice, adipose tissue H&E",significantly increased
same,number of small fat cells (<100 μm in diameter),"db/db mice; db/db mice, adipose tissue H&E",significantly increased
same,increase in fat mass as compared to the vehicle control,db/db mice; [2],no increase
same,increase in liver weight as compared to the vehicle control,db/db mice; [2],no increase
same,HDL levels,"db/db mice; db/db mice, oral once a day",increased
same,LDL levels,"db/db mice; db/db mice, oral once a day",significantly decreased
same,blood FFA,"db/db mice; db/db mice, oral once a day",significantly decreased
same,blood TG,"db/db mice; db/db mice, oral once a day",significantly decreased
same,blood alanine aminotransferase (ALT) levels,"db/db mice; db/db mice, oral once a day",significantly reduced
same,blood aspartate aminotransferase (AST) levels,"db/db mice; db/db mice, oral once a day",significantly reduced
same,blood insulin,"db/db mice; db/db mice, oral once a day",significantly decreased
same,serum adiponectin (Acrp30) levels,"db/db mice; db/db mice, oral once a day",increased
same,total cholesterol levels,"db/db mice; db/db mice, oral once a day",did not affect
same,blood glucose levels,"db/db mice; db/db mice, oral once a day, MD001 5 or 20 mg/kg, WY14643 20 mg/kg, rosiglitazone 20 mg/kg",significantly decreased blood glucose levels in a dose-dependent manner
same,hepatic FFA,"db/db mice; db/db mice, 20 mg/kg",significantly reduced
same,hepatic TG,"db/db mice; db/db mice, 20 mg/kg",significantly reduced
same,hepatic steatosis (H&E staining of liver),"db/db mice; db/db mice, 20 mg/kg",reduction in size and number of hepatic lipid droplets in a dose-dependent manner
same,diameter of the glomerular capsule,"db/db mice; db/db mice, 20 mg/kg once a day for 60 days",significantly reduced
same,expression of PEPCK and G6Pase in the liver,"db/db mice; db/db mice, 20 mg/kg once a day for 60 days, qRT-PCR",decreased
same,H&E staining of skeletal muscle,"db/db mice; db/db mice, 20 mg/kg, 60 days, compared among vehicle and treated groups",no differences
same,"expression of inflammatory genes TNFα, MCP-1 and macrophage-marker genes CD11b, CD11c",db/db mice; [3],decreased
same,"liver expression of hepatic lipogenesis genes ADD1, ACC, FAS",db/db mice; [3],decreased
same,"skeletal muscle expression of ACOX, CPT, MLYCD, GLUT4, and LPL",db/db mice; [3],significantly increased
same,"adipose tissue expression of ACOX, CPT, GLUT4, and CD36",db/db mice; [4],significantly increased
same,"liver expression of target genes of PPARα (ACOX, CPT, MLYCD) and PPARγ (GLUT2, GK, CD36)",db/db mice; [4],significantly increased
same,blood glucose levels in oral glucose tolerance test (OGTT),"db/db mice; db/db mice, glucose 1 g/kg, eight weeks after drug administration",significantly decreased
same,food ingestion,"db/db mice; wild type C57BL/6J and db/db mice, 3-day food intake",without changes in food ingestion
